Test results taken from the NIST ThermoML archive (doi:10.1016/j.jct.2016.05.015).
± gives the expanded uncertainty stated by the source.

Experiment: xn = mol fraction of the nth substance listed
Details: 100 kPa, Liquid; for viscosity: Capillary tube (Ostwald / Ubbelohde) method; for speed of sound: Frequency=2 MHz, Linear variable-path acoustic interferometer; for mass density: Vibrating tube method

Nc1cccc(Cl)c1 [3-chlorobenzenamine] + Clc1ccccc1
Details | mass density [kg/m3] | speed of sound [m/s] | viscosity [mPa·s]
303.15 K, x1 = 0.0895 | 1106.11 ± 20 | 1265.6 ± 7.8 | 1.126 ± 0.1
303.15 K, x1 = 0.1802 | 1116.69 ± 20 | 1284.1 ± 7.9 | 1.516 ± 0.1
303.15 K, x1 = 0.2935 | 1129.74 ± 20 | 1308.9 ± 8 | 1.975 ± 0.1
303.15 K, x1 = 0.3821 | 1139.77 ± 20 | 1329.6 ± 8.1 | 2.317 ± 0.1
303.15 K, x1 = 0.4956 | 1152.34 ± 20 | 1358.1 ± 8.3 | 2.738 ± 0.1
303.15 K, x1 = 0.5823 | 1161.75 ± 20 | 1381.5 ± 8.5 | 3.046 ± 0.1
303.15 K, x1 = 0.6923 | 1173.48 ± 20 | 1413.3 ± 8.6 | 3.417 ± 0.1
303.15 K, x1 = 0.8012 | 1184.88 ± 20 | 1447.5 ± 8.8 | 3.756 ± 0.1
303.15 K, x1 = 0.8856 | 1193.58 ± 20 | 1476 ± 9 | 3.991 ± 0.1
303.15 K, x1 = 1 | 1205.32 ± 20 | 1517.5 ± 9.3 | 4.255 ± 0.1
308.15 K, x1 = 0.0895 | 1100.43 ± 20 | 1243.5 ± 7.6 | 1.059 ± 0.1
308.15 K, x1 = 0.1802 | 1111.15 ± 20 | 1262.3 ± 7.7 | 1.418 ± 0.1
308.15 K, x1 = 0.2935 | 1124.32 ± 20 | 1287.4 ± 7.9 | 1.835 ± 0.1
308.15 K, x1 = 0.3821 | 1134.43 ± 20 | 1308.4 ± 8 | 2.145 ± 0.1
308.15 K, x1 = 0.4956 | 1147.15 ± 20 | 1337.4 ± 8.2 | 2.522 ± 0.1
308.15 K, x1 = 0.5823 | 1156.68 ± 20 | 1361.3 ± 8.3 | 2.797 ± 0.1
308.15 K, x1 = 0.6923 | 1168.55 ± 20 | 1393.9 ± 8.5 | 3.126 ± 0.1
308.15 K, x1 = 0.8012 | 1180.09 ± 20 | 1429 ± 8.7 | 3.421 ± 0.1
308.15 K, x1 = 0.8856 | 1188.91 ± 20 | 1458.3 ± 8.9 | 3.623 ± 0.1
308.15 K, x1 = 1 | 1200.75 ± 20 | 1501.2 ± 9.2 | 3.842 ± 0.1
313.15 K, x1 = 0.0895 | 1095.5 ± 20 | 1223.6 ± 7.5 | 0.9961 ± 0.1
313.15 K, x1 = 0.1802 | 1106.27 ± 20 | 1242.2 ± 7.6 | 1.322 ± 0.1
313.15 K, x1 = 0.2935 | 1119.45 ± 20 | 1267.1 ± 7.8 | 1.697 ± 0.1
313.15 K, x1 = 0.3821 | 1129.56 ± 20 | 1288 ± 7.9 | 1.972 ± 0.1
313.15 K, x1 = 0.4956 | 1142.29 ± 20 | 1316.8 ± 8.1 | 2.306 ± 0.1
313.15 K, x1 = 0.5823 | 1151.83 ± 20 | 1340.5 ± 8.2 | 2.548 ± 0.1
313.15 K, x1 = 0.6923 | 1163.77 ± 20 | 1373.1 ± 8.4 | 2.839 ± 0.1
313.15 K, x1 = 0.8012 | 1175.35 ± 20 | 1408.2 ± 8.6 | 3.097 ± 0.1
313.15 K, x1 = 0.8856 | 1184.21 ± 20 | 1437.5 ± 8.8 | 3.264 ± 0.1
313.15 K, x1 = 1 | 1196.02 ± 20 | 1480.3 ± 9 | 3.43 ± 0.1
318.15 K, x1 = 0.0895 | 1090.31 ± 20 | 1198.7 ± 7.4 | 0.9397 ± 0.1
318.15 K, x1 = 0.1802 | 1101.12 ± 20 | 1217.7 ± 7.5 | 1.238 ± 0.1
318.15 K, x1 = 0.2935 | 1114.34 ± 20 | 1243.1 ± 7.6 | 1.57 ± 0.1
318.15 K, x1 = 0.3821 | 1124.49 ± 20 | 1264.5 ± 7.8 | 1.808 ± 0.1
318.15 K, x1 = 0.4956 | 1137.26 ± 20 | 1294.2 ± 7.9 | 2.098 ± 0.1
318.15 K, x1 = 0.5823 | 1146.85 ± 20 | 1318.8 ± 8.1 | 2.308 ± 0.1
318.15 K, x1 = 0.6923 | 1158.87 ± 20 | 1352.6 ± 8.3 | 2.557 ± 0.1
318.15 K, x1 = 0.8012 | 1170.53 ± 20 | 1389.2 ± 8.5 | 2.773 ± 0.1
318.15 K, x1 = 0.8856 | 1179.42 ± 20 | 1419.9 ± 8.7 | 2.908 ± 0.1
318.15 K, x1 = 1 | 1191.25 ± 20 | 1464.8 ± 8.9 | 3.022 ± 0.1

Nc1cccc(Cl)c1 [3-chlorobenzenamine] + O=[N+]([O-])c1ccccc1
Details | mass density [kg/m3] | speed of sound [m/s] | viscosity [mPa·s]
303.15 K, x1 = 0.0812 | 1194.97 ± 20 | 1445 ± 8.8 | 1.938 ± 0.1
303.15 K, x1 = 0.1725 | 1196.57 ± 20 | 1452.6 ± 8.9 | 2.253 ± 0.1
303.15 K, x1 = 0.2623 | 1198.01 ± 20 | 1460 ± 8.9 | 2.537 ± 0.1
303.15 K, x1 = 0.3725 | 1199.59 ± 20 | 1468.9 ± 9 | 2.863 ± 0.1
303.15 K, x1 = 0.4854 | 1201 ± 20 | 1478 ± 9 | 3.179 ± 0.1
303.15 K, x1 = 0.5896 | 1202.12 ± 20 | 1486.4 ± 9.1 | 3.456 ± 0.1
303.15 K, x1 = 0.6785 | 1202.96 ± 20 | 1493.5 ± 9.1 | 3.679 ± 0.1
303.15 K, x1 = 0.7825 | 1203.81 ± 20 | 1501.6 ± 9.2 | 3.915 ± 0.1
303.15 K, x1 = 0.8905 | 1204.59 ± 20 | 1509.8 ± 9.2 | 4.117 ± 0.1
303.15 K, x1 = 1 | 1205.32 ± 20 | 1517.5 ± 9.3 | 4.255 ± 0.1
308.15 K, x1 = 0.0812 | 1189.92 ± 20 | 1427.2 ± 8.7 | 1.787 ± 0.1
308.15 K, x1 = 0.1725 | 1191.59 ± 20 | 1435 ± 8.8 | 2.079 ± 0.1
308.15 K, x1 = 0.2623 | 1193.07 ± 20 | 1442.5 ± 8.8 | 2.34 ± 0.1
308.15 K, x1 = 0.3725 | 1194.69 ± 20 | 1451.6 ± 8.9 | 2.637 ± 0.1
308.15 K, x1 = 0.4854 | 1196.16 ± 20 | 1460.9 ± 8.9 | 2.922 ± 0.1
308.15 K, x1 = 0.5896 | 1197.35 ± 20 | 1469.4 ± 9 | 3.168 ± 0.1
308.15 K, x1 = 0.6785 | 1198.25 ± 20 | 1476.7 ± 9 | 3.362 ± 0.1
308.15 K, x1 = 0.7825 | 1199.18 ± 20 | 1485 ± 9.1 | 3.565 ± 0.1
308.15 K, x1 = 0.8905 | 1200.03 ± 20 | 1493.4 ± 9.1 | 3.734 ± 0.1
308.15 K, x1 = 1 | 1200.75 ± 20 | 1501.2 ± 9.2 | 3.842 ± 0.1
313.15 K, x1 = 0.0812 | 1185.37 ± 20 | 1409.1 ± 8.6 | 1.666 ± 0.1
313.15 K, x1 = 0.1725 | 1187.04 ± 20 | 1416.6 ± 8.7 | 1.935 ± 0.1
313.15 K, x1 = 0.2623 | 1188.49 ± 20 | 1423.8 ± 8.7 | 2.167 ± 0.1
313.15 K, x1 = 0.3725 | 1190.08 ± 20 | 1432.6 ± 8.7 | 2.427 ± 0.1
313.15 K, x1 = 0.4854 | 1191.52 ± 20 | 1441.5 ± 8.8 | 2.674 ± 0.1
313.15 K, x1 = 0.5896 | 1192.7 ± 20 | 1449.8 ± 8.9 | 2.889 ± 0.1
313.15 K, x1 = 0.6785 | 1193.61 ± 20 | 1456.8 ± 8.9 | 3.059 ± 0.1
313.15 K, x1 = 0.7825 | 1194.55 ± 20 | 1465 ± 8.9 | 3.234 ± 0.1
313.15 K, x1 = 0.8905 | 1195.37 ± 20 | 1473 ± 9 | 3.369 ± 0.1
313.15 K, x1 = 1 | 1196.02 ± 20 | 1480.3 ± 9 | 3.43 ± 0.1
318.15 K, x1 = 0.0812 | 1179.19 ± 20 | 1392.1 ± 8.5 | 1.542 ± 0.1
318.15 K, x1 = 0.1725 | 1181 ± 20 | 1399.7 ± 8.5 | 1.787 ± 0.1
318.15 K, x1 = 0.2623 | 1182.58 ± 20 | 1407 ± 8.6 | 1.992 ± 0.1
318.15 K, x1 = 0.3725 | 1184.35 ± 20 | 1415.8 ± 8.6 | 2.218 ± 0.1
318.15 K, x1 = 0.4854 | 1185.97 ± 20 | 1424.9 ± 8.7 | 2.43 ± 0.1
318.15 K, x1 = 0.5896 | 1187.32 ± 20 | 1433.4 ± 8.7 | 2.615 ± 0.1
318.15 K, x1 = 0.6785 | 1188.37 ± 20 | 1440.7 ± 8.8 | 2.755 ± 0.1
318.15 K, x1 = 0.7825 | 1189.5 ± 20 | 1449.1 ± 8.8 | 2.902 ± 0.1
318.15 K, x1 = 0.8905 | 1190.49 ± 20 | 1457.3 ± 8.9 | 3.004 ± 0.1
318.15 K, x1 = 1 | 1191.25 ± 20 | 1464.8 ± 8.9 | 3.022 ± 0.1
